Measured values published in ChEMBL document CHEMBL5257076, “Design, synthesis, structure-activity relationship studies, and evaluation of novel GLS1 inhibitors” (Bioorg Med Chem Lett, 2023).
Activity calls are given as the source filed them. The rule behind the calls is not given here.

Each compound was assayed against T1, Glutaminase kidney isoform, mitochondrial (Mus musculus) (UniProt D3Z7P3) (assay: Inhibition of GLS1 in mouse kidney extract at 1 mM relative to control). Details: not given.
T1 sequence (whole entry): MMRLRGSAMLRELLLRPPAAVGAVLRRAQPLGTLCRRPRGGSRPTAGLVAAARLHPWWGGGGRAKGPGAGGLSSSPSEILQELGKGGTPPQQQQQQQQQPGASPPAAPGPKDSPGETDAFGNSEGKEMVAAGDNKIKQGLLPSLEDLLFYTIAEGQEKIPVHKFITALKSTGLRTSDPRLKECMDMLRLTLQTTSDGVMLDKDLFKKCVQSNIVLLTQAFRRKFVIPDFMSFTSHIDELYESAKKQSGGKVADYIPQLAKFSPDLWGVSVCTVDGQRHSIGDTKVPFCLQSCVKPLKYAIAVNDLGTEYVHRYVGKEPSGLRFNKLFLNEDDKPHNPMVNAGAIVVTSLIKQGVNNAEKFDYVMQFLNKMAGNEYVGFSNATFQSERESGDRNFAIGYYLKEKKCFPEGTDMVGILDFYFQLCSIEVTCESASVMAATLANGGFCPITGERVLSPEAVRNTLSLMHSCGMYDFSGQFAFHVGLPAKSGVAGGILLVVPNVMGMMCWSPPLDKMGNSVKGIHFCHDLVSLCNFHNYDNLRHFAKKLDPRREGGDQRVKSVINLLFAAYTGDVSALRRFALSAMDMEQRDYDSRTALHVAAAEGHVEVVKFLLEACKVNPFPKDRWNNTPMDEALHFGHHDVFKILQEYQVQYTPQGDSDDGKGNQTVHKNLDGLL
Format: tissue-based

Row | Structure (SMILES) | inhibition [%]
1 | [N-]=[N+]=CC(=O)CC[C@H](N)C(=O)O | 65.5

The compounds below were run against T1, Glutaminase kidney isoform, mitochondrial (Mus musculus) (assay: Inhibition of GLS1 in mouse kidney extract at 10 mM relative to control). Details: not given.
Format: tissue-based

Row | inhibition [%] | Structure (SMILES)
2 | 90.1 | O=C(N[C@H]1CC[C@H](O)CC1)c1cc(Cc2ccc(F)cc2)n[nH]1
3 | 58.6 | O=C(N[C@H]1CC[C@H](O)CC1)c1cc(CCc2ccccc2)n[nH]1
4 | 52.6 | NNC(=O)c1cc(-c2ccccc2)n[nH]1
5 | 99.4 | O=C(N[C@H]1CC[C@H](O)CC1)c1cc(Cc2ccccc2)n[nH]1
6 | 93.3 | O=C(N[C@H]1CC[C@H](O)CC1)c1cc(-c2ccccc2)n[nH]1

What follows are compounds tested against T1, Glutaminase kidney isoform, mitochondrial (Mus musculus) (assay: Inhibition of mouse recombinant GLS1 glutaminase activity at 1 mM). Details: not given.

Row | Structure (SMILES) | inhibition
7 | [N-]=[N+]=CC(=O)CC[C@H](N)C(=O)O | Active

These compounds were tested against T1, Glutaminase kidney isoform, mitochondrial (Mus musculus) (assay: Inhibition of mouse recombinant GLS1 relative to control). Details: concentration not given here.

Row | inhibition [%] | Structure (SMILES)
8 | 73.2 | O=C(N[C@H]1CC[C@H](O)CC1)c1cc(Cc2ccc(F)cc2)n[nH]1
9 | 19.7 | O=C(N[C@H]1CC[C@H](O)CC1)c1cc(Cc2ccccc2)n[nH]1
10 | 81.4 | O=C(N[C@H]1CC[C@H](O)CC1)c1cc(-c2ccccc2)n[nH]1

Row | Structure (SMILES) | inhibition [%]
11 | [N-]=[N+]=CC(=O)CC[C@H](N)C(=O)O | 55.5

The compounds below were run against T2, Glutaminase kidney isoform, mitochondrial (Homo sapiens) (UniProt O94925) (assay: Inhibition of human recombinant GLS1 at 10 mM relative to control). Details: not given.
T2 sequence (whole entry): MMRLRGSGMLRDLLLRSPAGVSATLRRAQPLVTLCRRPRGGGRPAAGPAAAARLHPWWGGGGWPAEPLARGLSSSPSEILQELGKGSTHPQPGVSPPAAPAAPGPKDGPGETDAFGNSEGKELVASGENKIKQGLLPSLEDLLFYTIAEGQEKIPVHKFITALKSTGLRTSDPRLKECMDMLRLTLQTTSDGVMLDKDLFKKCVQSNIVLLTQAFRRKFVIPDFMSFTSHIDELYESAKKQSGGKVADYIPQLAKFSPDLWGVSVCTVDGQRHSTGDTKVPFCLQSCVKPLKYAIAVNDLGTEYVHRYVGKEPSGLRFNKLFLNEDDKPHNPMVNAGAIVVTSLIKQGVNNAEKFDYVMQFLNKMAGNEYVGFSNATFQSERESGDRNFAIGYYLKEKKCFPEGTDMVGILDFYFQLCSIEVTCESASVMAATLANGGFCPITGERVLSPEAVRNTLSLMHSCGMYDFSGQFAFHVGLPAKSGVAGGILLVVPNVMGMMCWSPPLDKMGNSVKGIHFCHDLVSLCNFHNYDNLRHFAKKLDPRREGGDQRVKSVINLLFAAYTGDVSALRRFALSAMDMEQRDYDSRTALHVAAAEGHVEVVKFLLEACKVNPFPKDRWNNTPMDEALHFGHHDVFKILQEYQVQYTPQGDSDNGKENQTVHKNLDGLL

Row | inhibition [%] | Structure (SMILES)
12 | 94.6 | O=C(N[C@H]1CC[C@H](O)CC1)c1cc(Cc2ccc(F)cc2)n[nH]1
13 | 97.1 | O=C(N[C@H]1CC[C@H](O)CC1)c1cc(-c2ccccc2)n[nH]1

What follows are compounds tested against T2, Glutaminase kidney isoform, mitochondrial (Homo sapiens) (assay: Inhibition of human recombinant GLS1 at 1 mM relative to control). Details: not given.

Row | Structure (SMILES) | inhibition [%]
14 | [N-]=[N+]=CC(=O)CC[C@H](N)C(=O)O | 84.1

The compounds below were run against T1, Glutaminase kidney isoform, mitochondrial (Mus musculus) (assay: Inhibition of GLS1 in mouse kidney extract at 10 mM). Details: not given.
Format: tissue-based

Row | inhibition | Structure (SMILES)
15 | inactive | CON(C)C(=O)c1cc(Cc2ccccc2)n[nH]1
16 | inactive | O=C(NCCO)c1cc(Cc2ccccc2)n[nH]1
17 | inactive | O=C(c1cc(Cc2ccccc2)n[nH]1)N1CCOCC1
18 | inactive | CNC(=O)c1cc(Cc2ccccc2)n[nH]1
19 | inactive | O=C(c1cc(Cc2ccccc2)n[nH]1)N1CCCCC1
20 | inactive | CN(C)C(=O)c1cc(Cc2ccccc2)n[nH]1
21 | inactive | O=C(c1cc(Cc2ccccc2)n[nH]1)N1CCCC1

The remaining lines, values behind:

Row | Structure (SMILES) | inhibition
22 | O=C(Nc1ccccc1)c1cc(Cc2ccccc2)n[nH]1 | inactive
23 | O=C(N[C@H]1CC[C@H](O)CC1)c1cc(-c2ccccc2)c[nH]1 | inactive
24 | O=C(c1cc(Cc2ccccc2)n[nH]1)N1CCC(O)CC1 | inactive
25 | O=C(N[C@H]1CC[C@H](O)CC1)c1ncc(-c2ccccc2)[nH]1 | Active
26 | O=C(c1cc(Cc2ccccc2)n[nH]1)N1CCCCCC1 | inactive
27 | O=C1CCC(NC(=O)c2cc(Cc3ccccc3)n[nH]2)CC1 | inactive
28 | O=C(N[C@H]1CC[C@H](O)CC1)c1ccc(-c2ccccc2)[nH]1 | inactive
